# Values joined by “and” are separate entries in the source; they are usually repeats but may differ in a detail not shown here. Equal values may be shown once. *1 amine or outer side, *2 acyl side, *3 side chain or, on linkers, in order; H or OH if unused. Where a SMILES comes first, the peptide text is derived from it. Bridges are numbered along the chain shown (N, C = ends). Roman numbers before positions name the chains, in order. [ ]: non-standard residue; d: D form. Actinocin(9to1) = Cc1c2oc3c(C)ccc(C(=O)[*:1])c3nc-2c(C(=O)[*:2])c(N)c1=O; NMeV = CN[C@H](C(=O)O)C(C)C; Sar = CNCC(=O)O
# Legend:
# [1] = test system: sarcoma 180 ascites tumor; test: Effects on sarcoma 180 ascites tumor (Test IV); type: in vivo, mouse (ICR); conditions: Table III; for T/C (TPCV ratio treated/control): 4 days, 7th day
# Method: A portion of each of the extraction fractions was suspended or dissolved in 0.5% suspension of carboxymethylcellulose (CMC) in a phosphate buffered saline solution (PBS commercially available from GIBCO Laboratories, containing ca. 9.5 mM phosphate) to a predetermined concentration.
# Mouse sarcoma 180 tumor cells which have been subcultivated intraperitoneally in ICR mice were drawn from the mouse together with the ascites and diluted with physiological saline solution to a cell count of 10^8 per ml. The tumor cell suspension thus prepared was transplanted by means of a syringe intraperitoneally into 4 week-old male ICR mice at a dose of 0.1 ml. Consequently, the cell count transplanted per mouse was 1×10^7.
# The test material as prepared above was intraperitoneally administered at a dose of 0.1 ml. per mouse for 4 days once a day from the next day of the transplantation of mouse sarcoma 180 tumor cells. A group of 6 mice was employed for each concentration of each test material. […] As a control was administered the CMC-containing PBS as described above only in the same way as above. The dose is expressed as weight per kg. bodyweight of mouse.
# On the 7th day of transplantation of the tumor cells the bodyweight of each mouse was measured (X). Then, ascites was thoroughly drawn from the mouse, followed by measurement of the bodyweight (Y). X-Y is taken as the amount of ascites.
# The drawn ascites was the introduced into a hematocrit tube and then centrifuged at 15,000 G for 5 minutes using a hematocrit rotor at a low temperature. There was thus made determination of the ascitocrit value, that is, proportion of the cells present in the ascites which corresponded to the hematocrit value in hematology. The value multiplied by volume of the ascites gives the volume of the cells present in the ascites. This is designated as total packed cell volume (TPCV).
# Effect on the tumor was rated ineffective (-) when the TPCV ratio of the treated to the control (T/C) was 100-66%, plus 1 (+) when it was 65-41%, plus 2 (++) when it was 40-11%, and plus 3 (+++) when it was 10-0%.
# sarcoma 180 solid tumor = test: Effects on sarcoma 180 solid tumor (Test V); type: in vivo, mouse (ICR); conditions: Table IV; for T/C (tumor weight ratio treated/control): 15th-21st day
# Method: Test materials were prepared in the same manner as in Test IV under (1).
# A cell suspension containing 1×10^8 cells per ml. was prepared in the same way as in Test IV under (2). Four week old-ICR mice was innoculated subcutaneously on the back with 0.1 ml. of the suspenstion by means of a syringe.
# As in Test IV under (3), a group of 6 animals was used for each concentration of each test material.
# Grown tumor tissue was resected on the 15th-21st day of the tumor cell transplantation and weighed. An average for the group of 6 animals was taken for the evaluation. The effect was evaluated on the basis of ratio of the average weight for the treated animals to that of the control animals. […] Ratios (T/C) of 100-71% were rated ineffective (-), of 70-51% plus 1 (+), of 50-21% plus 2 (++), and of 20-0% plus 3 (+++).
# mouse L-5178Y cells = test: Effects on mouse L-5178Y cells (Test III); type: cell-based; conditions: 2 days
# Method: A medium containing 1×10^5 cells/ml. was prepared using mouse L-5178Y cells cultivated on RPMI-1640 medium containing 10% fetal bovine serum for 3 days. The medium was placed in a 96-well U-type microplate in an amount of 50 μl. per well.
# A portion of the test material, which was one of the extracts according to the invention described in the above examples, was dissolved in the medium to a final concentration in the medium as shown in Table II below. The amount of the solution per well was 60 μl. The test material thus prepared was incubated in a carbon-dioxide incubator at 37° C. for 2 days. After completion of the incubation, the cells were collected and counted well by well, and the cell counts were compared with cell count of the control which contained no test material. The cell could of the control was approximately 8.6×10^5 /ml. For activity comparison's sake, the same test was done with mitomycin C (MMC) or bleomycin (BLM). In the table below, T/C represents the ratio of count of the cells treated with the test material to that with no test material added. ID50 is the concentration of the test material required for decreasing concentration of the cells to 1/2 that of the control.
# The neem extracts produced in Examples 5-7 above were tested for effects on mouse L-5178Y cells, sarcoma 180 ascites and solid tumors according to the methods described in Tests II-IV.
compound,measurement,setting,value
"Cc1c2oc3c(C)ccc(C(=O)N[C@@H]4C(=O)N[C@H](C(C)C)C(=O)N5CCC[C@H]5C(=O)N(C)CC(=O)N(C)[C@@H](C(C)C)C(=O)O[C@@H]4C)c3nc-2c(C(=O)N[C@@H]2C(=O)N[C@H](C(C)C)C(=O)N3CCC[C@H]3C(=O)N(C)CC(=O)N(C)[C@@H](C(C)C)C(=O)O[C@@H]2C)c(N)c1=O [ACD, actinomycin D] (I: T[dV]P[Sar][NMeV] / II: T[dV]P[Sar][NMeV]; ester I:1-I:C, II:1-II:C; linker I:N-II:N via Actinocin(9to1))",Rating,[1]; 0.1 mg./kg.,+++ (plus 3 (+++) when it was 10-0%)
same,T/C (TPCV ratio treated/control),[1]; 0.1 mg./kg. i.p. once a day,0%
"O=P1(N(CCCl)CCCl)NCCCO1 (centres unmarked) [CYP, cyclophosphamide]",Rating,[1]; 33 mg./kg.,+++ (plus 3 (+++) when it was 10-0%)
same,T/C (TPCV ratio treated/control),[1]; 33 mg./kg. i.p. once a day,0%
same,Rating,[1]; 67 mg./kg.,+++ (plus 3 (+++) when it was 10-0%)
same,T/C (TPCV ratio treated/control),[1]; 67 mg./kg. i.p. once a day,0%
same,Rating,sarcoma 180 solid tumor; 33 mg./kg.,+++ (of 20-0% plus 3 (+++))
same,T/C (tumor weight ratio treated/control),sarcoma 180 solid tumor; 33 mg./kg.,0%
same,Rating,sarcoma 180 solid tumor; 67 mg./kg.,+++ (of 20-0% plus 3 (+++))
same,T/C (tumor weight ratio treated/control),sarcoma 180 solid tumor; 67 mg./kg.,0%
"O=c1[nH]cc(F)c(=O)[nH]1 [Example 5-Fu, 5-fluorouracil]",Rating,[1]; 20 mg./kg.,+++ (plus 3 (+++) when it was 10-0%)
same,T/C (TPCV ratio treated/control),[1]; 20 mg./kg. i.p. once a day,0%
same,Rating,sarcoma 180 solid tumor; 20 mg./kg.,+ (of 70-51% plus 1 (+))
same,T/C (tumor weight ratio treated/control),sarcoma 180 solid tumor; 20 mg./kg.,47.8%
"CO[C@@]12[C@H](COC(N)=O)C3=C(C(=O)C(C)=C(N)C3=O)N1C[C@@H]1N[C@@H]12 [MMC, mitomycin C]",activity at 0.1 µg/mL,"mouse L-5178Y cells; Mus musculus, L5178Y, 48 h, 0.1 μg./ml., read-out: T/C (cell count treated / no test material)",47.9%
same,activity at 0.3 µg/mL,"mouse L-5178Y cells; Mus musculus, L5178Y, 48 h, 0.3 μg./ml., read-out: T/C (cell count treated / no test material)",24.7%
same,activity at 1 µg/mL,"mouse L-5178Y cells; Mus musculus, L5178Y, 48 h, 1.0 μg./ml., read-out: T/C (cell count treated / no test material)",13.4%
same,IC50,"mouse L-5178Y cells; Mus musculus, L5178Y, 48 h, Table II, concentration decreasing cells to 1/2 of control, read-out: ID50 (the source's name)",0.09 mg/L
same,Rating,[1]; 0.5 mg./kg.,+++ (plus 3 (+++) when it was 10-0%)
same,T/C (TPCV ratio treated/control),[1]; 0.5 mg./kg. i.p. once a day,0%
same,Rating,[1]; 1.5 mg./kg.,+++ (plus 3 (+++) when it was 10-0%)
same,T/C (TPCV ratio treated/control),[1]; 1.5 mg./kg. i.p. once a day,0%
same,Rating,sarcoma 180 solid tumor; 0.5 mg./kg.,- (Ratios (T/C) of 100-71% were rated ineffective (-))
same,T/C (tumor weight ratio treated/control),sarcoma 180 solid tumor; 0.5 mg./kg.,71.0%
same,T/C (tumor weight ratio treated/control),sarcoma 180 solid tumor; 1.5 mg./kg.,32.5% and 50.2%
bleomycin [BLM],T/C (cell count treated / no test material),mouse L-5178Y cells; 5 μg./ml.,57.1%
same,T/C (cell count treated / no test material),mouse L-5178Y cells; 10 μg./ml.,46.1%
same,T/C (cell count treated / no test material),mouse L-5178Y cells; 100 μg./ml.,8.8%
same,ID50,"mouse L-5178Y cells; Table II, concentration decreasing cells to 1/2 of control",7.8 mg/L
same,Rating,[1]; 10 mg./kg.,+++ (plus 3 (+++) when it was 10-0%)
same,T/C (TPCV ratio treated/control),[1]; 10 mg./kg. i.p. once a day,0%
same,T/C (tumor weight ratio treated/control),sarcoma 180 solid tumor; 10 mg./kg.,43.5% and 52.3%

# Source: US4515785A, “Neem bark extracts” (priority 1980, dated 1985)
